# Patent US20230293539A1, “MLL1-WDR5 PROTEIN-PROTEIN INTERACTION INHIBITOR COMPOUNDS AND USES THEREOF” (HUYABIO International, LLC, priority 2022, published 2023)
# Read-outs that look alike come from different tables or passages of the source.
# Key:
# WDR5 = WDR5 (Homo sapiens, UniProt P61964); assay: Selectivity panel (Table 3); assay type: binding
# Liver S9 stability assay = assay type: in vitro ADME, rat
# Experimental: Liver S9 stability assay: Test compounds (1 μM) and positive control were incubated with 5 mM GSH and liver S9 (1 mg protein/ml) from multiple species (including human, monkey, dog, rat and mouse) at 37° C. at 0, 10, 30, and 60 minutes in duplicate. After adding the stop solution, 100 μL of supernatant were analyzed by LC-MS/MS. The % remaining of test compound, T1/2 (min), and CLint (μL/min/mg) were calculated and were reported.
# [1] = PK profile of HBI-2375 in plasma and brain in C57BL/6J mice; assay type: in vivo; conditions: for AUClast / AUC(0-t) / Tmax at 7 day / Cmax at 7 day / Tmax / Cmax / MRT last: C57BL/6J mice; for concentration at 24 h / Kp / AUC(0-t): C57BL/6J; for concentration at 24 h / Kp / AUC(0-t) / Tmax at 7 day / Cmax at 7 day / Tmax / Cmax / MRT last: mouse; for concentration at 24 h: read-out: Mean Brain Concentration, Cmin = 24 h; for AUClast Ratio, group 2 vs 1 / Cmax Ratio, group 2 vs 1: 80 vs 40 mg/kg PO; for AUClast ratios females/males / Cmax ratios females/males: all three dose groups
# Experimental: EXAMPLE 4: PK profile of compound of Formula (IIIb) (HBI-2375, HYBI-84) in plasma and brain in C57BL/6J mice: This study was conducted in accordance with the Study Protocol and Pharmaron (Ningbo) TSP's Standard Operating Procedures (SOPs) following all regulatory protocols. This study was conducted under non-GLP environment.
# Following single oral gavage administration of HBI-2375 at 40 mg/kg, 80 mg/kg, and 7-day repeat oral gavage administration at 80 mg/kg in C57BL/6J mice, concentrations of HBI-2375 in plasma and brain were determined by LC-MS/MS methods. […] The maximal concentrations of HBI-2375 in brain were all observed at 4 hr post-dose. […] The exposure of HBI-2375 in plasma and brain of females were closed to that of males, the ratios were 0.989-1.22 for plasma, and 1.10-1.34 for brain.
# [2] = both sexes, single PO 40 mg/kg, brain, mean
# [3] = both sexes, single PO 40 mg/kg, plasma, mean
# [4] = both sexes, single PO 80 mg/kg, brain, mean
# [5] = both sexes, single PO 80 mg/kg, plasma, mean
# [6] = mice, 7-day consecutive dosing 80 mg/kg
# [7] = mice, all dose groups, listed as HBI-2375
compound,measurement,setting,value
"Cc1c(F)c(N)cc(C(=O)Nc2cc(-n3cc(C(=O)N4CCN(C)CC4)nn3)c(F)cc2N2C[C@@H](C)N(C)[C@@H](C)C2)c1Cl [HYBI-084, 5-amino-2-chloro-4-fluoro-N-(4-fluoro-5-(4-(4-methylpiperazine-1-carbonyl)-1H-1,2,3-triazol-1-yl)-2-((3S,5R)-3,4,5-trimethylpiperazin-1-yl)phenyl)-3-methylbenzamide]",IC50,WDR5,683 pM
same,half-life at 1 μM,Liver S9 stability assay; Rat liver S9,> 2.42 h
same,microsomal CLint at 1 μM,Liver S9 stability assay; Rat liver S9,< 4.8 µL/min/mg
same,% Remaining after 60 min incubation,"Liver S9 stability assay; Rat liver S9, 1 μM, 5 mM GSH, 37° C.",80.1%
same,AUClast,"[1]; 7-day repeat PO 80 mg/kg, brain, female",11446 ng·h/g
same,AUClast,"[1]; 7-day repeat PO 80 mg/kg, brain, male",8555 ng·h/g
same,AUClast,"[1]; 7-day repeat PO 80 mg/kg, brain, mean",10001 ng·h/g
same,AUClast,"[1]; single PO 40 mg/kg, brain, female",2179 ng·h/g
same,AUClast,"[1]; single PO 40 mg/kg, brain, male",1879 ng·h/g
same,AUClast,"[1]; single PO 40 mg/kg, brain, mean",2029 ng·h/g
same,AUClast,"[1]; single PO 80 mg/kg, brain, female",6129 ng·h/g
same,AUClast,"[1]; single PO 80 mg/kg, brain, male",5559 ng·h/g
same,AUClast,"[1]; single PO 80 mg/kg, brain, mean",5844 ng·h/g
same,concentration at 24 h,"[1]; brain, po, 80 mg/kg, Repeat PO Mouse at 80 mg/kg",136 ng/g
same,concentration at 24 h,"[1]; brain, po, 80 mg/kg, Single PO Mouse at 80 mg/kg",55 ng/g
same,Kp,"[1]; both sexes, brain, oral, 40 mg/kg, mice, single dosing 40 mg/kg, read-out: AUC exposure in brain as % of that in plasma",0.283 to 0.332
same,Kp,"[1]; both sexes, brain, oral, 80 mg/kg, mice, single dosing 80 mg/kg, read-out: AUC exposure in brain as % of that in plasma",0.361 to 0.388
same,Kp,"[1]; both sexes, brain, oral, mice, all dose groups, read-out: brain exposure as % of AUC in plasma",0.283 to 0.588
same,AUC(0-t),"[1]; both sexes, plasma, po, 40 mg/kg, single PO 40 mg/kg, mean",6600 ng·h/mL
same,AUC(0-t),"[1]; both sexes, plasma, po, 80 mg/kg, 7-day repeat PO 80 mg/kg, mean",17700 ng·h/mL
same,AUC(0-t),"[1]; both sexes, plasma, po, 80 mg/kg, single PO 80 mg/kg, mean",15600 ng·h/mL
same,Tmax at 7 day,"[1]; both sexes, 7-day repeat PO 80 mg/kg, brain",4 h
same,Cmax at 7 day,"[1]; both sexes, 7-day repeat PO 80 mg/kg, brain, mean",807 ng/g
same,Tmax at 7 day,"[1]; both sexes, 7-day repeat PO 80 mg/kg, plasma",1 h
same,Cmax at 7 day,"[1]; both sexes, 7-day repeat PO 80 mg/kg, plasma, mean",2530 ng/mL
same,Tmax,"[1]; both sexes, single PO 40 mg/kg, brain",4 h
same,Cmax,[1]; [2],180 ng/g
same,MRT last,[1]; [2],8.15 h
same,Tmax,"[1]; both sexes, single PO 40 mg/kg, plasma",0.5 h
same,Cmax,[1]; [3],1140 ng/mL
same,MRT last,[1]; [3],5.26 h
same,Tmax,"[1]; both sexes, single PO 80 mg/kg, brain",4 h
same,Cmax,[1]; [4],528 ng/g
same,MRT last,[1]; [4],8.21 h
same,Tmax,"[1]; both sexes, single PO 80 mg/kg, plasma",0.5 h
same,Cmax,[1]; [5],3970 ng/mL
same,MRT last,[1]; [5],5.16 h
same,Kp,"[1]; female, brain, po, 40 mg/kg, mice, single PO 40 mg/kg, female, read-out: AUClast Ratio Brain/Plasma",0.332
same,Kp,"[1]; female, brain, po, 80 mg/kg, mice, repeat PO 80 mg/kg, female, read-out: AUClast Ratio Brain/Plasma",0.588
same,Kp,"[1]; female, brain, po, 80 mg/kg, mice, single PO 80 mg/kg, female, read-out: AUClast Ratio Brain/Plasma",0.388
same,AUC(0-t),"[1]; female, plasma, po, 40 mg/kg, single PO 40 mg/kg",6560 ng·h/mL
same,AUC(0-t),"[1]; female, plasma, po, 80 mg/kg, 7-day repeat PO 80 mg/kg",19500 ng·h/mL
same,AUC(0-t),"[1]; female, plasma, po, 80 mg/kg, single PO 80 mg/kg",15800 ng·h/mL
same,Kp,"[1]; male, brain, po, 40 mg/kg, mice, single PO 40 mg/kg, male, read-out: AUClast Ratio Brain/Plasma",0.283
same,Kp,"[1]; male, brain, po, 80 mg/kg, mice, repeat PO 80 mg/kg, male, read-out: AUClast Ratio Brain/Plasma",0.536
same,Kp,"[1]; male, brain, po, 80 mg/kg, mice, single PO 80 mg/kg, male, read-out: AUClast Ratio Brain/Plasma",0.361
same,AUC(0-t),"[1]; male, plasma, po, 40 mg/kg, single PO 40 mg/kg",6640 ng·h/mL
same,AUC(0-t),"[1]; male, plasma, po, 80 mg/kg, 7-day repeat PO 80 mg/kg",16000 ng·h/mL
same,AUC(0-t),"[1]; male, plasma, po, 80 mg/kg, single PO 80 mg/kg",15400 ng·h/mL
same,drug accumulation in brain,[1]; [6],no obvious drug accumulation
same,drug accumulation in plasma,[1]; [6],no obvious drug accumulation
same,mean concentration at 24 hr post-dose as % of Cmax,"[1]; mice, 7-day repeat PO 80 mg/kg, brain, both sexes",14.4-18.9%
same,mean concentration at 24 hr post-dose as % of Cmax,"[1]; mice, 7-day repeat PO 80 mg/kg, plasma, both sexes",2.68-3.94%
same,"AUClast Ratio, group 2 vs 1","[1]; mice, brain, female",2.81
same,"Cmax Ratio, group 2 vs 1","[1]; mice, brain, female",2.89
same,"AUClast Ratio, group 2 vs 1","[1]; mice, brain, male",2.96
same,"Cmax Ratio, group 2 vs 1","[1]; mice, brain, male",3.00
same,"AUClast Ratio, group 2 vs 1","[1]; mice, plasma, female",2.41
same,"Cmax Ratio, group 2 vs 1","[1]; mice, plasma, female",3.47
same,"AUClast Ratio, group 2 vs 1","[1]; mice, plasma, male",2.32
same,"Cmax Ratio, group 2 vs 1","[1]; mice, plasma, male",3.50
same,distribution,"[1]; mice, all dose groups",distributed to brain
same,duration of brain exposure,"[1]; mice, all dose groups",24 h
same,gender-related differences in exposure in brain,[1]; [7],No gender-related differences
same,gender-related differences in exposure in plasma,[1]; [7],No gender-related differences
same,AUClast ratios females/males,"[1]; mice, brain",1.10-1.34
same,Cmax ratios females/males,"[1]; mice, brain",1.11-1.24
same,AUClast ratios 7-day repeat vs single-dose 80 mg/kg,"[1]; mice, brain, both sexes",1.54-1.87
same,AUClast ratios 80 vs 40 mg/kg single dose,"[1]; mice, brain, both sexes",2.81-2.96
same,Cmax ratios 7-day repeat vs single-dose 80 mg/kg,"[1]; mice, brain, both sexes",1.44-1.60
same,AUClast ratios females/males,"[1]; mice, plasma",0.989-1.22
same,Cmax ratios females/males,"[1]; mice, plasma",0.967-1.27
